Measured values taken from patent US9511017B2, “Method and composition for use in preparation of a patient for surgery” (priority 2005, dated 2016).

Assays:
[1] = Transcutaneous penetration / comparative release of active ingredient in horizontal glass Franz-type diffusion cells; type: in vitro ADME; details: 2 hrs; 0.5 g sample; mean of duplicates
Description: The transcutaneous penetration and comparative release of active ingredient were compared using a horizontal glass Franz-type diffusion cells such as are described in R. Danids, (Skin Care Forum, Issue 37, August 2004, Cognis); S. Jung, (The University of California Irvine Undergraduate Research Journal, p. 25-26, Vol V, 2002, University of California Irvine); Guideline for Industry Non-sterile Semisolid Dosage Forms (SUPAC-SS CMC7), May 1997, U.S. Department of Health and Human Services FDA CDER. A standard cellophane dialysis membrane of MW cut off 6-8000 was used for the diffusion studies. The Franz cell receiving solution was composed of 50% v/v methanol/water. Cellophane membranes were mounted horizontally in the Franz cells. 0.5 g of sample were used for each test. The cell receptor was continuously stirred magnetically and maintained at 35+/−2° C. At the designated time 150 microliters aliquots were sampled from the receiving vessel of the Franz cells. 20 microliters were injected into HLPC. […]
0.5 g samples of compositions according to examples 2, 3 and 4 were compared over periods of 2, 4 and 7 hours with a prior art composition comprising 5% chlorhexidine in 62% ethyl alcohol. […] Column C, D, and E give the results for the actives in the respective formulations, both in mg and as a % of the sample quantity tested.

[2] = tested on: Pseudomonas aeruginosa ATTC 15442; details: triclosan alone, known; cited from earlier work

## [H]/N=C(\N/C(=N/[H])NCCCCCCNC(=N)NC(=N)Nc1ccc(Cl)cc1)Nc1ccc(Cl)cc1 [chlorhexidine]
[1]
  chlorhexidine penetrated, % of the sample quantity tested: < 0.24%

## Oc1cc(Cl)ccc1Oc1ccc(Cl)cc1Cl [triclosan, 2,4,4-trichloro-2-hydroxy-diphenylether]
[1]
  triclosan penetrated, % of the sample quantity tested: 0.24%
[2]
  effectiveness against Pseudomonas aeruginosa: relatively ineffective
